# Reference: patent US20220296616A1, “SHP1 AND SHP2 INHIBITORS AND THEIR METHODS OF USE” (Tiaki Therapeutics Inc., priority 2019, published 2022)
# Assays:
# [1] = tested on: matrix remodeling genes (mmp9, mmp16, mmp12, mmp2, mmp14); test: Expression of matrix remodeling genes in organotypic cortical brain slice cultures; format: cell-based, mice
# Experimental: (§1) The treatment of organotypic cortical brain slice cultures from adult mice with Compound A for 48 h was associated with reductions in expression of matrix remodeling genes (mmp9, mmp16, mmp12; n=3-9, see FIG. 1A showing results of dosing of Compound A at 5 nM, 50 nM, 500 nM, and 5 μM) and total MMP12 protein (n=3-6, see FIG. 1B showing results of dosing of Compound A at 5 nM, 50 nM, 500 nM, and 5 μM).
# (§2) The treatment of organotypic cortical brain slice cultures from adult mice with Compound B for 48 h was associated with reductions in expression of cytokine genes (egfr, i16ra, csf1r, illr1, plekho2; n=3, see FIG. 3A showing results of dosing of Compound B at 2 μM, and 20 μM) and matrix remodeling genes (mmp12, mmp2, mmp16, mmp14; n=3, see FIG. 3B showing results of dosing of Compound B at 2 μM, and 20 μM).
# (§3) The treatment of organotypic brain mice cultures from adult mice with Compound C for 72 h was associated with reductions in expression of cytokine genes (egfr, i16ra, csf1r, plekho2; n=2, See FIG. 5A showing results of dosing of Compound C at 0.1 μM, 0.3 μM, and 10 μM), matrix remodeling genes (mmp12, mmp16; n=2, See FIG. 5B for results of dosing of compound C at 0.1 μM, 0.3 μM, and 10 μM), and astrocyte genes (egfr, ai464131, gdpd2, adh1l1; n=2, See FIG. 5C for results of dosing of compound C at 0.1 μM, 0.3 μM, and 10 μM), and increases in expression of neuronal marker genes (tbr1, dlx1, slc17a6, islr2; n=2, See FIG. 5D for results of dosing of compound C at 0.1 μM, 0.3 μM, and 10 μM).
# [2] = tested on: MMP12 protein; test: Total MMP12 protein in organotypic cortical brain slice cultures; format: cell-based; details: organotypic cortical brain slice cultures from adult mice, 48 h, 5 nM, 50 nM, 500 nM, 5 μM; significant dose-dependence; FIG. 1B
# Experimental: as §1
# [3] = tested on: IL-33; test: Pro-inflammatory cytokine IL-33 in organotypic cortical slice cultures; format: cell-based, mice; details: 48 h, 50 nM, 500 nM, 5 μM, FIG. 2B
# Experimental: (§4) The treatment of organotypic cortical slice cultures with Compound A for 48 h was associated with reductions in expression of cytokine genes (cx3cl1, tgfbr2, i14ra, tgfb1, tnfrsf10b, csf1r, egfr, fit1, flt4, ccl12; n=3-9, see FIG. 2A showing results of dosing of Compound A at 5 nM, 50 nM, 500 nM, and 5 μM) and pro-inflammatory cytokines like IL-33 (n=3-6, see FIG. 2B showing results of dosing of Compound A at 50 nM, 500 nM, and 5 μM).
# [4] = tested on: cytokine genes; test: Expression of cytokine genes in organotypic cortical slice cultures; format: cell-based, mice
# Experimental: as §4, §2, §3
# [5] = tested on: neuronal marker genes; test: Expression of neuronal marker genes in organotypic cortical brain slice cultures; format: cell-based, mice
# Experimental: (§5) The treatment of organotypic cortical brain slice cultures from adult mice with Compound B for 48 h was associated with reductions in expression of astrocyte marker genes (egfr, AI464131, Itga7, Gdpd2, Sox9, Aldh1l1, Entpd2; n=3, see FIG. 4A showing results of dosing of Compound B at 2 μM, and 20 μM) and increases in expression of neuronal marker genes (tbr1, Dlx1, Slc17a6, Islr2; n=3, see FIG. 4B showing results of dosing of Compound B at 2 μM, and 20 μM).
# as §3
# [6] = tested on: astrocyte marker genes; test: Expression of astrocyte marker genes in organotypic cortical brain slice cultures; format: cell-based, mice
# Experimental: as §5, §3
compound,measurement,setting,value
Cc1nc(N2CCC3(CC2)CO[C@@H](C)[C@H]3N)c(CO)nc1-c1cccc(Cl)c1Cl [Compound A],"expression of matrix remodeling genes (mmp9, mmp16, mmp12)","[1]; organotypic cortical brain slice cultures from adult mice, 48 h, 5 nM, 50 nM, 500 nM, 5 μM, significant dose-dependence, FIG. 1A",reductions
same,total MMP12 protein,[2],reductions
same,expression of pro-inflammatory cytokines like IL-33,[3],reductions
same,"expression of cytokine genes (cx3cl1, tgfbr2, i14ra, tgfb1, tnfrsf10b, csf1r, egfr, fit1, flt4, ccl12)","[4]; organotypic cortical slice cultures, 48 h, 5 nM, 50 nM, 500 nM, 5 μM, FIG. 2A",reductions
O=S(=O)(O)c1ccc2cc(/N=N/c3cc(S(=O)(=O)O)c4cccnc4c3O)ccc2c1 [Compound B],"expression of matrix remodeling genes (mmp12, mmp2, mmp16, mmp14)","[1]; organotypic cortical brain slice cultures from adult mice, 48 h, 2 μM and 20 μM, FIG. 3B",reductions
same,"expression of neuronal marker genes (tbr1, Dlx1, Slc17a6, Islr2)","[5]; organotypic cortical brain slice cultures from adult mice, 48 h, 2 μM and 20 μM, FIG. 4B",increases
same,"expression of astrocyte marker genes (egfr, AI464131, Itga7, Gdpd2, Sox9, Aldh1l1, Entpd2)","[6]; organotypic cortical brain slice cultures from adult mice, 48 h, 2 μM and 20 μM, FIG. 4A",reductions
same,"expression of cytokine genes (egfr, i16ra, csf1r, illr1, plekho2)","[4]; organotypic cortical brain slice cultures from adult mice, 48 h, 2 μM and 20 μM, FIG. 3A",reductions
CC1(N)CCN(c2cnc3c(-c4cccc(Cl)c4Cl)n[nH]c3n2)CC1 [Compound C],"expression of matrix remodeling genes (mmp12, mmp16)","[1]; organotypic brain cultures from adult mice, 72 h, 0.1 μM, 0.3 μM, 10 μM, FIG. 5B",reductions
same,"expression of neuronal marker genes (tbr1, dlx1, slc17a6, islr2)","[5]; organotypic brain cultures from adult mice, 72 h, 0.1 μM, 0.3 μM, 10 μM, FIG. 5D",increases
same,"expression of astrocyte genes (egfr, ai464131, gdpd2, adh1l1)","[6]; organotypic brain cultures from adult mice, 72 h, 0.1 μM, 0.3 μM, 10 μM, FIG. 5C",reductions
same,"expression of cytokine genes (egfr, i16ra, csf1r, plekho2)","[4]; organotypic brain cultures from adult mice, 72 h, 0.1 μM, 0.3 μM, 10 μM, FIG. 5A",reductions
